Laboratory results from patent US6703540B1, “Transformation of plants with a chloroperoxidase gene to enhance disease resistance” (The United States of America as represented by the …, priority 2000, dated 2004).

What was measured:
Aspergillus flavus [1] = assay: Comparative lethalities of oxidants to Aspergillus flavus; assay type: cell-based; settings: mM concentrations of oxidants that produce 50% killing of Aspergillus flavus
endogenous peroxidase = assay: Endogenous peroxidase activity in leaf extracts assayed with guaiacol; assay type: biochemical, Nicotiana tabacum; settings: guaiacol assay
From the text: The validity of the assay procedure for CPO-P activity in transgenic tobacco was established in the following manner.

Aspergillus flavus [2] = settings: H2O2 converted to hypochlorite by myeloperoxidase, in vitro; cited from earlier work

OCl [HOCl, hypochlorous acid]
LD50 (Aspergillus flavus [1]): 0.30 mM

CC(=O)OO [HOOAc, peracetic acid]
LD50 (Aspergillus flavus [1]): 0.15 mM

[N-]=[N+]=[N-].[Na+] [NaN3]
inhibition of endogenous peroxidase activity in leaf extracts (in words) (endogenous peroxidase): completely inhibited

OO [Plant H2O2, hydrogen peroxide]
LD50 (Aspergillus flavus [1]): 18.00 mM

B1: myeloperoxidase: animal haloperoxidase converting hydrogen peroxide to hypochlorous acid (protein, UniProt P05164 165-745, looked up)
Myeloperoxidase: VTCPEQDKYRTITGMCNNRRSPTLGASNRAFVRWLPAEYEDGFSLPYGWTPGVKRNGFPVALARAVSNEIVRFPTDQLTPDQERSLMFMQWGQLLDHDLDFTPEPAARASFVTGVNCETSCVQQPPCFPLKIPPNDPRIKNQADCIPFFRSCPACPGSNITIRNQINALTSFVDASMVYGSEEPLARNLRNMSNQLGLLAVNQRFQDNGRALLPFDNLHDDPCLLTNRSARIPCFLAGDTRSSEMPELTSMHTLLLREHNRLATELKSLNPRWDGERLYQEARKIVGAMVQIITYRDYLPLVLGPTAMRKYLPTYRSYNDSVDPRIANVFTNAFRYGHTLIQPFMFRLDNRYQPMEPNPRVPLSRVFFASWRVVLEGGIDPILRGLMATPAKLNRQNQIAVDEIRERLFEQVMRIGLDLPALNMQRSRDHGLPGYNAWRRFCGLPQPETVGQLGTVLRNLKLARKLMEQYGTPNNIDIWMGGVSEPLKRKGRVGPLLACIIGTQFRKLRDGDRFWWENEGVFSMQQRQALAQISLPRIICDNTGITTVSKNNIFMSNSYPRDFVNCSTLPALNLASWREAS
increase in lethality against Aspergillus flavus (Aspergillus flavus [2]): ≤ 90 fold
